The results in this text go back to patent US7628987B2, “Vectors derived from antibodies for transferring substances into cells” (Institut Pasteur, priority 1997, dated 2009).

Several values for one entry are separate records, joined by “and”; a condition that tells them apart may be missing. Identical values can stand only once. No end group written: not given here.

Data set [1] relates to CCL39 cells. In words: Polyfection in the presence of glycerol, CCL39 cells. Particulars: glycerol 0.23 M, charge ratio 2.2, 5 h30. The data set is classed as cell-based, hamster. The protocol: Further, by way of comparison, transfection was carried out in the presence of polyethylene […] (PEI), 25 kDa (Aldrich, St Louis, Mo.) in a charge ratio of 2.2 in the presence of glycerol and 5 in the absence of glycerol.

The next data set concerns cells in culture. In words: Cell penetration of polypeptide-streptavidin vectors coupled to enzymes. The following applies: 2 hours of culture, complete culture medium.
The subject of the next data set is PtK2 fibroblasts. In words: Study of the penetration of biotinylated polypeptides into cells (peroxidase coloration). The following applies: after 1 hour of culture, biotinylated polypeptide 5-20 μg/ml. The data set is classed as cell-based. The protocol: Cultured PtK2 fibroblasts seeded the day before in an amount of 5×10^4 cells per well onto glass sheets, are incubated at 37° C., 1-18 hours in complete RPMI 1640 culture medium (or DMEM) (10% foetal calf serum, 2 mM L-glutamine and 1 mM of sodium pyruvate) containing a biotinylated polypeptide of the invention (5-20 μg/ml) The cells were then washed with PBS and fixed with 2% of p-formaldehyde at 4° C. for 10 minutes then washed with PBS. The cells were then incubated with a solution of streptavidin conjugated with 5 μg/ml of peroxidase in PBS for 30 minutes, then washed with PBS and incubated in the peroxidase cytochemical substrate (diaminobenzidine+H2O2). After washing, the cells were examined microscopically.

The subject of the next data set is PV1/Sabin. It is filed as cell-based, polio virus type 1.
For a further data set, the system named is CMV Ad169 strain. The data set can be described thus: Inhibition of cytomegalovirus (CMV) replication (morphology, plaque counting, Western blot). The data set is classed as cell-based. (In general: A western blot detects proteins with antibodies after separation by electrophoresis.)
The test system of the next data set is HSV-1 TK^− virus. The data set can be described thus: microbe, parasite or virus in culture. Particulars: HSV1 TK^−. It is filed as cell-based, Herpes Virus Simplex type I.
Data set [2] relates to CCL39 cells. The data set is classed as cell-based, hamster. Particulars: CCL39, complete medium, no auxiliary agent. As to the method: CCL39 cells (hamster fibroblasts) (5×10^4 cells) were placed in 24 well culture plates for 18 hours before transfection in MEM+10% FCS (foetal calf serum) culture medium. Transfections were carried out in MEM+10% FCS with no other auxiliary agent (CHLOROQUINE). The peptide-PL and free polylysine PL (corresponding to 19 lysines) were complexed with the pCMVLUC plasmid (respectively 24 μg and 70 μg per 6 μg of plasmid) for 30 minutes. The complex was then added dropwise to the CCL39. After incubating for 5 hours, the medium was replaced with fresh medium. Luciferase expression was assayed 24 hours later. The cells were washed twice with PBS. After washing, the cells were lysed with 100 μl of lyse buffer (PROMEGA) for 10-15 minutes. The cells were then centrifuged for 7 minutes at 4° C. to remove cellular debris. 20 μl of this lysate was mixed with 100 μl of luciferase buffer (PROMEGA). The relative luciferase units (RLU) were recorded on a LUMAT LB9501 (BERTHOLD). The protein concentration was determined using a BIORAD PROTEIN ASSAY-1 kit and the amount of luciferase in each sample was normalised per mg of protein, each transfection being carried out three times.

The next data set deals with PV1/Mahoney. It is filed as cell-based, polio virus type 1. Particulars: peptide 25 μg/ml, day 5.
The test system of the next data set is HSV-1 TK^+ virus. In words: microbe, parasite or virus in culture. The data set is classed as cell-based, Herpes Virus Simplex type I. Particulars: HSV1 TK^+.
Where [3] appears, read: PV1/Sabin, peptide 25 μg/ml, day 5.
The mark [4] stands for this setting: Day 1, cells pretreated with 25 μg/ml.
Setting [5] is: Day 4, cells pretreated with 25 μg/ml.

On to `OCC(O)CO` [glycerol], for which, in the data set with CCL39 cells [1], the “increase in polyfection (luciferase activity) induced by glycerol” value was 38 factor.
On to “streptavidin: control protein in native form”, for which the “intracellular detection of the coupled enzymes” value in the data set with cells in culture is “no intracellular coloration was observed”.
For the compound VAYISRGGVSTYYSDTVKGRFTRQKYNKRA [pF4.1], in the data set on PtK2 fibroblasts, the “penetration into cells (peroxidase coloration)” value is “penetrated massively and rapidly into the cells”.
For “KKKKKKKKKKKKKKKKKKKVAYISRGGVSTYYSDTVKGRFTRQKYNKRA [K19pF4-1]”, the “inhibiting effect on type 1 polio virus replication” value in the data set on PV1/Sabin is “more than 30 factor”. In addition, the “LOG (TITER/ML)” value in the data set with PV1/Sabin (setting [3]) turned out to be 8; with PV1/Mahoney it was 8.75. The figures for the “TITER REDUCTION FACTOR” value in the data set on PV1/Sabin (setting [3]) and in the data set with PV1/Mahoney were 32 and 8, respectively. Moreover, in the data set on 3T3 cells, the “toxicity of the polyplex” value was “did not induce any toxicity”. Besides, the “increase of transfection after 24 h with respect to 5 h30” value in the data set on 3T3 cells (3T3, charge ratio R 4.4) was “about 1.3 factor”. In addition, the luciferase activity in the data set with 3T3 cells (3T3, charge ratio R 4.4, incubating for 5 h30) is reported as 2-3×10^7 RLU/mg of protein. In addition, the “inhibition of infection of cells by CMV” value in the data set on CMV Ad169 strain was roughly 100%. In addition, the figures for the “NUMBER OF PLAQUES FORMED, Mean” value in the data set on CMV Ad169 strain (setting [4]) and with CMV Ad169 strain (setting [5]) were 100.0 and 166.7, respectively. The “NUMBER OF PLAQUES FORMED, individual determinations” value is 100 and 125 and 75 in the data set with CMV Ad169 strain (setting [4]); 0 and 250 (2×) in the data set on CMV Ad169 strain (setting [5]). In addition, in the data set with CMV Ad169 strain (setting [5]), the “% reduct'n of plaques formed” value turned out to be 99.5%. Also, the “action on CMV proteins (Western blot)” value with CMV Ad169 strain (added to cells after viral adsorption) was “had no action”. The “inhibition of virus replication” value in the data set with CMV Ad169 strain (cells treated before, and at the same time, as viral infection) is recorded as 99.5%. Further, the results for the “cytopathogenic effects (morphology)” value in the data set with CMV Ad169 strain (treated at the end of / after viral adsorption) and in the data set on CMV Ad169 strain (treated before or at the same time as the viral infection) were “large” and “displayed no morphological modifications”, respectively. Also, the “appearance of CMV proteins (Western blot)” value in the data set on CMV Ad169 strain (treated at the same time as viral infection) was “no appearance of late proteins was noted”; in the data set on CMV Ad169 strain (treated before viral infection), “the appearance of neither early proteins nor late proteins of the CMV was noted”. The “CPE inhibition (AI)” value with HSV-1 TK^− virus (added H0, 5 μ/well) came to 15; in the data set on HSV-1 TK^− virus (added H0, 10 μ/well), 25; with HSV-1 TK^− virus (added H0, 20 μ/well), 42; with HSV-1 TK^− virus (added H + 1, 5 μ/well), 1; with HSV-1 TK^− virus (added H + 1, 10 μ/well) it was 13; with HSV-1 TK^− virus (added H + 1, 20 μ/well), 1. The “CPE inhibition (AI)” value in the data set on HSV-1 TK^− virus (added H − 1, 5 μ/well) is recorded as 25; with HSV-1 TK^− virus (added H − 1, 10 μ/well), 7; with HSV-1 TK^− virus (added H − 1, 20 μ/well), 47; with HSV-1 TK^− virus (added H − 2, 5 μ/well), 21; in the data set with HSV-1 TK^− virus (added H − 2, 10 μ/well), 5; with HSV-1 TK^− virus (added H − 2, 20 μ/well) it was 25. Also, the “CPE inhibition (AI)” value in the data set with HSV-1 TK^+ virus (added H0, 5 μ/well) is given as 13; in the data set on HSV-1 TK^+ virus (added H0, 10 μ/well), 30; in the data set on HSV-1 TK^+ virus (added H0, 20 μ/well), 28; in the data set with HSV-1 TK^+ virus (added H + 1, 5 μ/well), 10; in the data set with HSV-1 TK^+ virus (added H + 1, 10 μ/well), 12; in the data set with HSV-1 TK^+ virus (added H + 1, 20 μ/well) it was 10. Moreover, the “CPE inhibition (AI)” value in the data set on HSV-1 TK^+ virus (added H − 1, 5 μ/well) worked out at 13; with HSV-1 TK^+ virus (added H − 1, 10 μ/well), 30; with HSV-1 TK^+ virus (added H − 1, 20 μ/well), 28; in the data set with HSV-1 TK^+ virus (added H − 2, 5 μ/well), 1; with HSV-1 TK^+ virus (added H − 2, 10 μ/well), 2; in the data set with HSV-1 TK^+ virus (added H − 2, 20 μ/well), 7. Moreover, the “transfection efficacy relative to polylysine alone” value in the data set on CCL39 cells [2] is “about 1000 times”. Moreover, the “transfection efficacy (luciferase)” value with CCL39 cells [2] (24 μg peptide per 6 μg pCMVLUC, 5 h incubation) was 2×10^6 RLU/mg of proteins.
